Source: publication PMC2680961, “Homologous desensitization of signalling by the alpha (α) isoform of the human thromboxane A2 receptor: A specific role for nitric oxide signalling” (Biochimica et Biophysica Acta, 2007)
Positions count from the first letter of the chain named.

Experiments:
TPα^S145A = molecular target: T1, TPα^S145A (Homo sapiens, UniProt P21731, S145A); test: [3H]SQ29,548 radioligand binding, Scatchard analysis, HEK.TPα^S145A
T1 construct: expressed in transfected cells
T1 sequence (P21731 1-343 S145A): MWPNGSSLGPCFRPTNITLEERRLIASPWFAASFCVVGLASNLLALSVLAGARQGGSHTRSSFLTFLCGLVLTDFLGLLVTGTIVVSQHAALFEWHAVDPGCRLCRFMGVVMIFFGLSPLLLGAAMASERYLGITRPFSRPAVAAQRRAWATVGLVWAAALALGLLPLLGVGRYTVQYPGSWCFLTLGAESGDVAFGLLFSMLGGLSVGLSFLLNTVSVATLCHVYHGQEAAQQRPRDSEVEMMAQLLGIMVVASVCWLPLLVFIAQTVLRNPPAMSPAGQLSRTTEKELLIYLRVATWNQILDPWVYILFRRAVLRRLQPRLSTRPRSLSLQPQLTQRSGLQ
Method: (§1) Cells were harvested by centrifugation at 500×g at 4 °C for 5 min and washed three times with ice-cold Ca^2+/Mg^2+-free phosphate-buffered saline (PBS). TP radioligand binding assays were carried out at 30 °C for 30 min in 100 μl reactions in the presence of 0–40 nM [^3H] […] Protein determinations were carried out using the Bradford assay.
(§2) Radioligand binding and Scatchard analysis data were analysed using GraphPad Prisim V4.0 programme (GraphPad Software Inc., San Diego CA, USA). Statistical analyses were carried out using the unpaired Student's t test using the Statworks Analysis Package. p-values ≤ 0.01 indicated statistically significant differences.

TP^S145A,Δ328 = molecular target: T2, TP^S145A,Δ328 (Homo sapiens, UniProt P21731, S145A); test: [3H]SQ29,548 radioligand binding, Scatchard analysis, HEK.TP^S145A,Δ328
T2 construct: expressed in transfected cells
T2 sequence (P21731 1-328 S145A): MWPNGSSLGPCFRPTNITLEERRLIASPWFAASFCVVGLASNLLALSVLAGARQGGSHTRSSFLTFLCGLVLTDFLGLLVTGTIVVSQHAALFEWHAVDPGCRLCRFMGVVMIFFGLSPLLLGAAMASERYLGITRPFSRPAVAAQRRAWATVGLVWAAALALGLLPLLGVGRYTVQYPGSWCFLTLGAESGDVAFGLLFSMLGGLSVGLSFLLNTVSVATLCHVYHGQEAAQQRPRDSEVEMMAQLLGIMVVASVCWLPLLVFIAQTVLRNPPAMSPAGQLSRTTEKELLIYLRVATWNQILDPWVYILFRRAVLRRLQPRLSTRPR
Method: as §1, §2

TPα^S329A = molecular target: T3, TPα^S329A (Homo sapiens, UniProt P21731, S329A); test: Intracellular calcium mobilization, HEK.TPα^S329A cells; type: cell-based
T3 construct: expressed in transfected cells
T3 sequence (P21731 1-343 S329A): T1 sequence (P21731 1-343 S145A) with A145S, S329A
Method: Measurement of intracellular calcium mobilization ([Ca^2+]i) in FURA2/AM preloaded HEK 293 cell lines (2 × 10^6 cells/dish), each transiently co-transfected with pADVA (10 μg), and pCMV:Gαq (25 μg), was carried out as previously described. To investigate the effect of GRK2/βARK1 on TP-mediated [Ca^2+]i mobilization, HEK.TPα or HEK.TPβ cells (2 × 10^6 cells/dish) were co-transfected with pADVA (10 μg), pCMV:Gαq (25 μg) along with pRK5:βARK1^495–689 (25 μg), encoding a dominant negative form of GRK2/βARK1[39]. […] For each measurement of [Ca^2+]i mobilization, aliquots of cells were diluted to 0.825 × 10^6 cells/ml in HBSSHB, 1 mM CaCl2 and FURA2 fluorescence was recorded (2 ml aliquots of cells) at 37^ °C with gentle stirring with a Perkin Elmer-Cetus LS50-B spectrofluorometer at excitation wavelengths of 340 nm and 380 nm and emission wavelength of 510 nm, respectively.
Cells were stimulated with the TP agonist U46619 (1 μM) and changes in [Ca^2+]i mobilization were monitored as a function of time. […]
The vehicle had no effect on U46619-mediated [Ca^2+]i mobilization. Calibration of the signal was performed in each sample by adding 0.2% Triton X-100 to obtain the maximal fluorescence ratio (Rmax) and then 1 mM EGTA to obtain the minimal fluorescence ratio (Rmin). […]

| Bmax (pmol/mg protein ± S.E.M.) (TPα^S145A) | Bmax (pmol/mg protein ± S.E.M.) (TP^S145A,Δ328) | Δ[Ca2+]i, U46619-induced (TPα^S329A; primary 1 μM U46619 4 min) | Δ[Ca2+]i, U46619-induced (TPα^S329A; secondary 1 μM U46619 at 15 min) | SMILES |
| --- | --- | --- | --- | --- |
| 3.03 ± 0.04 pmol/mg protein | 3.83 ± 0.03 pmol/mg protein | – | – | O=C(O)CCC/C=C\C[C@@H]1[C@H](CNNC(=O)Nc2ccccc2)[C@H]2CC[C@@H]1O2 [SQ29,548] |
| – | – | 228 ± 7.7 nM | 0 nM | CCCCC[C@H](O)/C=C/[C@@H]1[C@@H](C/C=C\CCCC(=O)O)[C@H]2CO[C@@H]1C2 [U46619] |
